Each compound was assayed on MCH receptors (assay: MCH receptor activity class (method not given)). Details: class by percent of control at 10^-7 M or IC50.

SMILES	class
CN(C)c1cc(N[C@H]2CC[C@@H](CNC(=O)c3c(F)ccc(F)c3Cl)CC2)nc2ccccc12 [compound 236]	3 (Class 3 The value of percent of control at 10^−7 M was more than 60% or the value of IC50 was more than 200 nM.)
Cc1cccc(C(=O)NC[C@H]2CC[C@@H](Nc3cc(N(C)C)c4ccccc4n3)CC2)c1C [compound 237]	3 (Class 3 The value of percent of control at 10^−7 M was more than 60% or the value of IC50 was more than 200 nM.)
COc1cccc(C(=O)N[C@H]2CC[C@@H](Nc3nccc(N(C)C)n3)CC2)c1 [compound 238, N-(cis-4-{[4-(dimethylamino)pyrimidin-2-yl]amino}cyclohexyl)-3-methoxybenzamide]	2 (Class 2: The value of percent of control at 10^−7 M was from 40% to 60% or the value of IC′50 was from 50 nM to 200 nM.)
CN(C)c1ccnc(N[C@H]2CC[C@@H](NC(=O)c3cccc(Br)c3)CC2)n1 [compound 239]	1 (Class 1: The value of percent of control at 10^−7 M was less than 40% or the value of IC50 was less than 50 nM.)
CN(C)c1ccnc(N[C@H]2CC[C@@H](NC(=O)c3ccc(Br)cc3)CC2)n1 [compound 240]	3 (Class 3 The value of percent of control at 10^−7 M was more than 60% or the value of IC50 was more than 200 nM.)
CN(C)c1ccnc(N[C@H]2CC[C@@H](NC(=O)c3ccc4nonc4c3)CC2)n1 [compound 241, N-(cis-4-{[4-(dimethylamino)pyrimidin-2-yl]amino}cyclohexyl)-2,1,3-benzoxadiazole-5-carboxamide]	1 (Class 1: The value of percent of control at 10^−7 M was less than 40% or the value of IC50 was less than 50 nM.)
CN(C)c1ccnc(N[C@H]2CC[C@@H](NC(=O)c3cccc(Cl)c3)CC2)n1 [compound 242]	1 (Class 1: The value of percent of control at 10^−7 M was less than 40% or the value of IC50 was less than 50 nM.)
CN(C)c1ccnc(N[C@H]2CC[C@@H](NC(=O)c3ccc(Cl)cc3)CC2)n1 [compound 243]	2 (Class 2: The value of percent of control at 10^−7 M was from 40% to 60% or the value of IC′50 was from 50 nM to 200 nM.)
CN(C)c1ccnc(N[C@H]2CC[C@@H](NC(=O)/C=C/c3ccccc3)CC2)n1 [compound 244]	3 (Class 3 The value of percent of control at 10^−7 M was more than 60% or the value of IC50 was more than 200 nM.)
CN(C)c1ccnc(N[C@H]2CC[C@@H](NC(=O)c3ccc(Cl)c([N+](=O)[O-])c3)CC2)n1 [compound 245, 4-chloro-N-(cis-4-{[4-(dimethylamino)pyrimidin-2-yl]amino}cyclohexyl)-3-nitrobenzamide]	1 (Class 1: The value of percent of control at 10^−7 M was less than 40% or the value of IC50 was less than 50 nM.)
CN(C)c1ccnc(N[C@H]2CC[C@@H](NC(=O)Cc3ccc(Cl)cc3)CC2)n1 [compound 246]	3 (Class 3 The value of percent of control at 10^−7 M was more than 60% or the value of IC50 was more than 200 nM.)
CN(C)c1ccnc(N[C@H]2CC[C@@H](NC(=O)c3cccc(C#N)c3)CC2)n1 [compound 247]	3 (Class 3 The value of percent of control at 10^−7 M was more than 60% or the value of IC50 was more than 200 nM.)
CN(C)c1ccnc(N[C@H]2CC[C@@H](NC(=O)c3cc(Cl)cc(Cl)c3)CC2)n1 [compound 248]	1 (Class 1: The value of percent of control at 10^−7 M was less than 40% or the value of IC50 was less than 50 nM.)
CN(C)c1ccnc(N[C@H]2CC[C@@H](NC(=O)c3ccc(Cl)c(Cl)c3)CC2)n1 [compound 249]	1 (Class 1: The value of percent of control at 10^−7 M was less than 40% or the value of IC50 was less than 50 nM.)
CN(C)c1ccnc(N[C@H]2CC[C@@H](NC(=O)C(c3ccccc3)c3ccccc3)CC2)n1 [compound 250, N-(cis-4-{[4-(dimethylamino)pyrimidin-2-yl]amino}cyclohexyl)-2,2-diphenylacetamide]	2 (Class 2: The value of percent of control at 10^−7 M was from 40% to 60% or the value of IC′50 was from 50 nM to 200 nM.)
CN(C)c1ccnc(N[C@H]2CC[C@@H](NC(=O)c3ccc(F)c(F)c3)CC2)n1 [compound 251, N-(cis-4-{[4-(dimethylamino)pyrimidin-2-yl]amino}cyclohexyl)-3,4-difluorobenzamide]	1 (Class 1: The value of percent of control at 10^−7 M was less than 40% or the value of IC50 was less than 50 nM.)
CN(C)c1ccnc(N[C@H]2CC[C@@H](NC(=O)c3cc(F)cc(F)c3)CC2)n1 [compound 252, N-(cis-4-{[4-(dimethylamino)pyrimidin-2-yl]amino}cyclohexyl)-3,5-difluorobenzamide]	2 (Class 2: The value of percent of control at 10^−7 M was from 40% to 60% or the value of IC′50 was from 50 nM to 200 nM.)
COc1ccc(OC)c(CC(=O)N[C@H]2CC[C@@H](Nc3nccc(N(C)C)n3)CC2)c1 [compound 253]	3 (Class 3 The value of percent of control at 10^−7 M was more than 60% or the value of IC50 was more than 200 nM.)
CCSc1ncccc1C(=O)N[C@H]1CC[C@@H](Nc2nccc(N(C)C)n2)CC1 [compound 254]	3 (Class 3 The value of percent of control at 10^−7 M was more than 60% or the value of IC50 was more than 200 nM.)
CN(C)c1ccnc(N[C@H]2CC[C@@H](NC(=O)c3ccc(F)cc3)CC2)n1 [compound 255, N-(cis-4-{[4-(dimethylamino)pyrimidin-2-yl]amino}cyclohexyl)-4-fluorobenzamide]	3 (Class 3 The value of percent of control at 10^−7 M was more than 60% or the value of IC50 was more than 200 nM.)
CN(C)c1ccnc(N[C@H]2CC[C@@H](NC(=O)c3cc(F)cc(C(F)(F)F)c3)CC2)n1 [compound 256, N-(cis-4-{[4-(dimethylamino)pyrimidin-2-yl]amino}cyclohexyl)-3-fluoro-5-(trifluoromethyl)benzamide]	2 (Class 2: The value of percent of control at 10^−7 M was from 40% to 60% or the value of IC′50 was from 50 nM to 200 nM.)
CN(C)c1ccnc(N[C@H]2CC[C@@H](NC(=O)c3cc(F)c(Cl)cc3Cl)CC2)n1 [compound 257]	3 (Class 3 The value of percent of control at 10^−7 M was more than 60% or the value of IC50 was more than 200 nM.)
CCCCCC(=O)N[C@H]1CC[C@@H](Nc2nccc(N(C)C)n2)CC1 [compound 258]	3 (Class 3 The value of percent of control at 10^−7 M was more than 60% or the value of IC50 was more than 200 nM.)
CN(C)c1ccnc(N[C@H]2CC[C@@H](NC(=O)c3ccc(I)cc3)CC2)n1 [compound 259]	3 (Class 3 The value of percent of control at 10^−7 M was more than 60% or the value of IC50 was more than 200 nM.)
CSc1ncccc1C(=O)N[C@H]1CC[C@@H](Nc2nccc(N(C)C)n2)CC1 [compound 260]	3 (Class 3 The value of percent of control at 10^−7 M was more than 60% or the value of IC50 was more than 200 nM.)
Cc1ccc(C(=O)N[C@H]2CC[C@@H](Nc3nccc(N(C)C)n3)CC2)cc1[N+](=O)[O-] [compound 261, N-(cis-4-{[4-(dimethylamino)pyrimidin-2-yl]amino}cyclohexyl)-4-methyl-3-nitrobenzamide]	2 (Class 2: The value of percent of control at 10^−7 M was from 40% to 60% or the value of IC′50 was from 50 nM to 200 nM.)
